Measurements reported in PMC11685355, “Solid lipid nanoparticles for increased oral bioavailability of acalabrutinib in chronic lymphocytic leukaemia” (Discover Nano, 2024).
Values after ≈ are worked out from the molar mass of the structure shown. Where two headings read alike, the source gives them in different places.

Key:
[1] = design: method as in doi:10.1002/sscp.202400110; conditions: Wistar rats; cited from earlier work
[2] = In vitro dissolution studies, USP type II apparatus; type: physicochemical; conditions: pH 6.8, 0.5% w/v SDS, within 2 h
Procedure: Dissolution studies were performed using USP type II dissolution apparatus under conditions simulating the fluids in different parts of the gastrointestinal tract (200 mL of pH 1.2 ± 0.02; 4.5 ± 0.02 buffer; and 900 mL of pH 6.8 ± 0.02 buffer) and blood/plasma (500 mL of pH 7.4 ± 0.02 buffer). […] The temperature was maintained at 37 ± 2 °C with a constant stirring rate of 75 rpm. At predetermined time intervals, 1000 μL samples were withdrawn from the dissolution media via a syringe and replenished with the same volume of fresh media (to retain the sink condition). The samples were immediately centrifuged at 15,373 × g in an ultracentrifuge. The supernatant was collected, diluted with mobile phase (methanol with 10 mM (pH 3.5) ammonium acetate buffer at a ratio of 52:48), and analysed via an HPLC–UV-based analytical method (mentioned in Sect. 3.2). The dissolution data obtained were contoured into different mathematical models (zero order; first order; and Higuchi square root kinetics) to determine the kinetics of drug release. The best fit model was analysed on the basis of the regression coefficient.

[3] = cited from earlier work
[4] = Solubility of ACP in molten solid lipids; type: physicochemical
Procedure: The solid lipids were screened on the basis of biocompatibility and visual evaluation of the solubility of ACP in the lipids. Solid lipids such as GB (Compritol® 888 ATO), glyceryl di-stearate (Precirol ATO 5), glyceryl trimyristate (Dynasan 114), stearic acid, SP (Kolliwax® S) and cetyl palmitate were selected for solubility studies, as they were reported to be biocompatible. In the solubility studies, approximately 200 mg of each lipid was weighed separately and melted by heating to 5–10 °C above its corresponding melting point using a magnetic stirrer equipped with a temperature controlling program. ACP was added in small amounts to each lipid (in molten state), incrementally, up to a maximum of 100 mg under continuous stirring (150–200 rpm) while maintaining the temperature (5–10 °C above its corresponding melting point) until some amount of ACP was present in undissolved / powder form in the lipid. Further, the lipids in which the drug has similar solubility, the lipid solutions (ACP dissolved in lipid) were maintained at the same temperature for 60 min to observed for any precipitation of the drug.

[5] = Saturation solubility of ACP in buffers with 0.5% w/v SDS; type: physicochemical; conditions: buffer systems with 0.5% w/v SDS; pH 4.5; 6.8; and 7.4 in the presence of 0.5% w/v SDS
From the text: The inherent hydrophobicity of ACP results in a solubility profile that is dependent on pH. […] It is very important to maintain sink condition during the in vitro dissolution study of any drug product. To maintain sink condition in the in vitro dissolution studies of hydrophobic drugs, various strategies can be employed, including, addition of surfactant; maintaining large volumes of dissolution media; addition of co-solvents; and use of a different dissolution apparatus like a flow through cell etc.. Of all the above strategies, addition of surfactants (either ionic or non-ionic) is the most commonly employed strategy. SDS, an anionic surfactant, is used to improve the wettability and saturation solubility of hydrophobic drugs in aqueous media. Researchers have used SDS in the range of 0.2 to 20% w/v to maintain the sink condition in the in vitro dissolution studies of formulations containing hydrophobic molecules. Thus, in order to achieve a sink condition, 0.5% w/v SDS was added in buffer systems having a pH of 4.5 and higher. […] Based on the above criteria, we have determined the minimum volume of pH 4.5, pH 6.8 and pH 7.4 (containing 0.5% w/v SDS) required to dissolve the entire drug dose administered in the formulation to be at least 130 mL.

[6] = cited from earlier work; remark: listed apart in the source
[7] = Solubility of ACP in surfactant solutions; type: physicochemical; conditions: aqueous with cosolvent or surfactant or cyclodextrin
Procedure: Surfactants are primarily chosen on the basis of two criteria: firstly, the affinity of ACP towards the aqueous solution in the presence of the surfactant; and secondly, their capacity to form a stable emulsion when the solid lipid is combined with the aqueous phase. […] Further, on the basis of the solubility of ACP in various surfactants, separate placebo batches of SLNs were prepared using the selected surfactant(s), in order to assess their ability to stabilize the SLNs by evaluating the particle size via dynamic light scattering.

For `CC#CC(=O)N1CCC[C@H]1c1nc(-c2ccc(C(=O)Nc3ccccn3)cc2)c2c(N)nccn12` [ACP, Acalabrutinib], the absolute oral bioavailability [1] is given as 22.83% ± 5.015%, the ACP dissolved [2] is given as “more than 80%” and the excreted in faeces [3] is given as 84%. For the same compound, the excreted in urine [3] was 12%, the “unchanged ACP, share of the total amount eliminated” value [3] was “less than 2%” and the “solubility of ACP in lipid” value ([4]; in 200 mg of GB (glyceryl di-behenate)) was ~ 40 mg. The “solubility of ACP in lipid” value ([4]; in 200 mg of SP (stearyl palmitate)) was > 80 mg, the solubility [5] was ≥ 770 µg/mL and the “solubility of ACP” value ([6]; 0.01 N HCl (pH = 2)) was 3730 µg/mL. For the same compound, the “solubility of ACP” value ([6]; 0.1 N HCl (pH = 1)) was 29200 µg/mL, the “solubility of ACP” value ([6]; acetate or citrate buffer (pH = 4.5)) was 159 µg/mL and the “maximum basic pKa” value [6] was 5.77. For the same compound, the “solubility above pH 6” value [6] was “practically insoluble”, the solubility ([7]; aqueous surfactant solution (Gelucire 44/14), Gelucire 44/14 0.15 % w/v, read-out: ACP solubility) was 1.36 µg/mL (≈ 2.92 µM) and the solubility ([7]; aqueous surfactant solution (Gelucire 44/14), Gelucire 44/14 2 % w/v, read-out: ACP solubility) was 2.27 µg/mL (≈ 4.88 µM). It also gave a solubility ([7]; aqueous surfactant solution (Gelucire 48/16), Gelucire 48/16 0.15 % w/v, read-out: ACP solubility) of 1.18 µg/mL (≈ 2.54 µM), a solubility ([7]; aqueous surfactant solution (Gelucire 48/16), Gelucire 48/16 2 % w/v, read-out: ACP solubility) of 2.96 µg/mL (≈ 6.36 µM) and a solubility ([7]; aqueous surfactant solution (PVP K30), Polyvinyl Pyrrolidone (PVP)- K30 0.15 % w/v, read-out: ACP solubility) of 0.748 µg/mL (≈ 1.61 µM). For the same compound, the solubility ([7]; aqueous surfactant solution (PVP K30), Polyvinyl Pyrrolidone (PVP)- K30 2 % w/v, read-out: ACP solubility) was 2.27 µg/mL (≈ 4.88 µM), the solubility ([7]; aqueous surfactant solution (Tween 80), 1% w/v solution of T80, read-out: solubility of ACP) was < 0.1 µg/mL and the solubility ([7]; aqueous surfactant solution (Tween 80), Tween 80 (T80) 0.15 % w/v, read-out: ACP solubility) was 0.0523 µg/mL (≈ 0.112 µM). For the same compound, the solubility ([7]; aqueous surfactant solution (Tween 80), Tween 80 (T80) 2 % w/v, read-out: ACP solubility) was 0.194 µg/mL (≈ 0.417 µM), the solubility ([7]; aqueous surfactant solution (poloxamer 188), 1% w/v solution of P188, read-out: solubility of ACP) was < 0.1 µg/mL and the solubility ([7]; aqueous surfactant solution (poloxamer 188), Poloxamer 188 (P188) 0.15 % w/v, read-out: ACP solubility) was 0.0075 µg/mL (≈ 0.0161 µM). For the same compound, the solubility ([7]; aqueous surfactant solution (poloxamer 188), Poloxamer 188 (P188) 2 % w/v, read-out: ACP solubility) was 0.0202 µg/mL (≈ 0.0434 µM), the solubility ([7]; aqueous surfactant solution (poloxamer 407), Poloxamer 407 (P407) 0.15 % w/v, read-out: ACP solubility) was 0.209 µg/mL (≈ 0.45 µM) and the solubility ([7]; aqueous surfactant solution (poloxamer 407), Poloxamer 407 (P407) 2 % w/v, read-out: ACP solubility) was 1.74 µg/mL (≈ 3.74 µM). For the same compound, the solubility ([7]; aqueous surfactant solution (polyvinyl alcohol), Polyvinyl Alcohol (PVA) 0.15 % w/v, read-out: ACP solubility) was 0.0137 µg/mL (≈ 0.0294 µM) and the solubility ([7]; aqueous surfactant solution (polyvinyl alcohol), Polyvinyl Alcohol (PVA) 2 % w/v, read-out: ACP solubility) was 0.109 µg/mL (≈ 0.234 µM).
